Data set [1] has as its system LoVo. The experiment in a line: cells. As to conditions: Homo sapiens, 120 h.
Data set [2] can be described thus: Cytotoxicity against BRCA2-deficient human Capan1 cells. The data set is classed as functional, cell-based, CAPAN-1.
A further data set has as its system MRC5. The experiment in a line: Cytotoxicity against human MRC5 cells. The data set is classed as cell-based.
Data set [3] deals with Canis familiaris. The experiment in a line: AUC(0 to infinity) in beagle dog at 0.025 mg/kg, iv. The data set is classed as ADME, organism-based, Canis lupus familiaris. As to conditions: in vivo. On the set-up: dose 0.025 mg/kg, time infinity, route intravenous.
Data set [4] can be described thus: Half life in beagle dog at 0.025 mg/kg, iv. The data set is classed as ADME, organism-based, Canis lupus familiaris. The conditions noted are these: in vivo.
The test system of data set [5] is Canis familiaris. The experiment in a line: Clast in beagle dog at 0.01 mg/kg, po. As to conditions: in vivo. The data set is classed as ADME, organism-based, Canis lupus familiaris.
Data set [6] can be described thus: Volume of distribution at steady state in beagle dog at 0.025 mg/kg, iv. The conditions noted are these: in vivo, read-out: Vdss. The data set is classed as ADME, organism-based, Canis lupus familiaris.
Data set [7] in a line: AUC(0 to t) in beagle dog at 0.025 mg/kg, iv. The data set is classed as ADME, organism-based, Canis lupus familiaris. The conditions noted are these: in vivo.
A short description of data set [8]: Tmax in beagle dog at 0.01 mg/kg, po. The data set is classed as ADME, organism-based, Canis lupus familiaris. The conditions noted are these: in vivo.
Data set [9] can be described thus: Cmax in beagle dog at 0.025 mg/kg, iv. The data set is classed as ADME, organism-based, Canis lupus familiaris. On the set-up: dose 0.025 mg/kg, route intravenous. As to conditions: in vivo.
Data set [10] in a line: Clearance in beagle dog at 0.025 mg/kg, iv. The data set is classed as ADME, organism-based, Canis lupus familiaris. As to conditions: in vivo.
Data set [11] can be described thus: AUC(0 to time) in beagle dog at 0.01 mg/kg, po. The data set is classed as ADME, organism-based, Canis lupus familiaris. As to conditions: in vivo.
Data set [12] concerns Canis familiaris. The experiment in a line: Clast in beagle dog at 0.025 mg/kg, iv. The data set is classed as ADME, organism-based, Canis lupus familiaris. As to conditions: in vivo.
Data set [13] relates to Canis familiaris. Description: AUC(0 to infinity) in beagle dog at 0.01 mg/kg, po. The data set is classed as ADME, organism-based, Canis lupus familiaris. On the set-up: dose 0.01 mg/kg, time infinity, route oral. As to conditions: in vivo.
A short description of data set [14]: Half life in beagle dog at 0.01 mg/kg, po. The data set is classed as ADME, organism-based, Canis lupus familiaris. As to conditions: in vivo.
A short description of data set [15]: Cmax in beagle dog at 0.01 mg/kg, po. The data set is classed as ADME, organism-based, Canis lupus familiaris. Also on record: dose 0.01 mg/kg, route oral. As to conditions: in vivo.
A short description of data set [16]: Apparent oral volume of distribution in beagle dog at 0.01 mg/kg, po. The data set is classed as ADME, organism-based, Canis lupus familiaris. The conditions noted are these: in vivo.
Data set [17] concerns Canis familiaris. The experiment in a line: Absolute oral bioavailability in beagle dog at 0.01 mg/kg. The data set is classed as ADME, organism-based, Canis lupus familiaris. As to conditions: in vivo.
Data set [18] can be described thus: AUC in Sprague-Dawley rat at 10 mg/kg, po by LC-MS/MS analysis. The data set is classed as ADME, organism-based. As to conditions: Sprague-Dawley, in vivo.
The nature of data set [19]: Clearance in Sprague-Dawley rat at 5 mg/kg, iv by LC-MS/MS analysis. The data set is classed as ADME, organism-based. The conditions noted are these: in vivo.
Data set [20] is described as follows: Volume of distribution at steady state in Sprague-Dawley rat at 5 mg/kg, iv by LC-MS/MS analysis. The data set is classed as ADME, organism-based. As to conditions: in vivo, read-out: Vdss.
Data set [21] has as its target Poly [ADP-ribose] polymerase 1 (Homo sapiens, UniProt P09874). Description: Inhibition of human PARP1 using [3H]NAD as substrate after 1 min by microplate scintillation counting analysis.
The next data set addresses PARP 1, 2 and 3 (Homo sapiens, UniProt P09874+Q9Y6F1+Q9UGN5). Description: Inhibition of PARP in human LoVo cells assessed as inhibition of poly(ADP)-ribose polymerization for 30 mins by fluorescence assay. The data set is classed as cell-based.
Data set [22] is described as follows: Terminal eliminational half life in Sprague-Dawley rat at 5 mg/kg, iv by LC-MS/MS analysis. The data set is classed as ADME, organism-based. The conditions noted are these: Sprague-Dawley, in vivo, read-out: beta t1/2 (converted).
Data set [23] can be described thus: Cmax in Sprague-Dawley rat at 10 mg/kg, po by LC-MS/MS analysis. On the set-up: dose 10 mg/kg, route oral. The data set is classed as ADME, organism-based. The conditions noted are these: in vivo.
Data set [24] can be described thus: Oral bioavailability in Sprague-Dawley rat at 10 mg/kg by LC-MS/MS analysis. The data set is classed as ADME, organism-based. As to conditions: Sprague-Dawley, in vivo.
For data set [25], the system named is LoVo.
In data set [26] the test system is MX1. Description: Antitumor activity against BRCA1 deficient human MX1 cells xenografted in athymic nu/nu mouse at 100 mg/kg, po qd. The data set is classed as functional, organism-based.
The subject of data set [27] is Mus musculus. Description: Decrease in PAR level in athymic nu/nu mouse xenografted with human MX1 cells at 100 mg/kg, po measured after 2 and 8 hrs by ELISA. The data set is classed as functional, organism-based.
Data set [28] relates to MX1. The experiment in a line: Antitumor activity against BRCA1 deficient human MX1 cells xenografted in athymic nu/nu mouse at 0.1 mg/kg, po qd administered for 21 days. The data set is classed as functional, organism-based.
For data set [29], the system named is MX1. The experiment in a line: Potentiation of cisplatin-induced tumor growth inhibition of BRCA1 deficient human MX1 cells xenografted in po dosed athymic nu/nu mouse drug administered for 8 days and animals were treated with cisplatin at 6 mg/kg, ip on day 3. The data set is classed as functional, organism-based.
Data set [30] relates to MX1. Description: Potentiation of carboplatin-induced tumor growth inhibition of BRCA1 deficient human MX1 cells xenografted in athymic nu/nu mouse at 0.33 mg/kg po and animals were treated with carboplatin at 35 mg/kg, ip on day 1. The data set is classed as functional, organism-based.
Data set [31] has as its system MX1. The experiment in a line: Antitumor activity against BRCA1 deficient human MX1 cells xenografted in athymic nu/nu mouse assessed as tumor growth inhibition at 0.165 mg/kg, po administered twice a day for 28 days. The data set is classed as functional, organism-based.
The test system of data set [32] is MX1. Description: Antitumor activity against BRCA1 deficient human MX1 cells xenografted in athymic nu/nu mouse at 0.33 mg/kg, po qd administered for 28 days. The data set is classed as functional, organism-based.
Data set [33] has as its system Mus musculus. The experiment in a line: Decrease in PAR level in athymic nu/nu mouse xenografted with human MX1 cells at 100 mg/kg, po measured after 24 hrs by ELISA. The data set is classed as functional, organism-based.
The subject of data set [34] is Mus musculus. The experiment in a line: Decrease in PAR level in athymic nu/nu mouse xenografted with human MX1 cells at 1 mg/kg, po administered as single dose measured after 2 ,8 and 24 hrs by ELISA. The data set is classed as functional, organism-based.
A short description of data set [35]: Half life in rat liver microsomes. The data set is classed as ADME.

Each structure is given as a SMILES string. The source made the active and inactive calls. No cut-off for these calls is given here. Bounds are passed on as bounds.

Poly [ADP-ribose] polymerase 1, sequence (P09874 whole entry): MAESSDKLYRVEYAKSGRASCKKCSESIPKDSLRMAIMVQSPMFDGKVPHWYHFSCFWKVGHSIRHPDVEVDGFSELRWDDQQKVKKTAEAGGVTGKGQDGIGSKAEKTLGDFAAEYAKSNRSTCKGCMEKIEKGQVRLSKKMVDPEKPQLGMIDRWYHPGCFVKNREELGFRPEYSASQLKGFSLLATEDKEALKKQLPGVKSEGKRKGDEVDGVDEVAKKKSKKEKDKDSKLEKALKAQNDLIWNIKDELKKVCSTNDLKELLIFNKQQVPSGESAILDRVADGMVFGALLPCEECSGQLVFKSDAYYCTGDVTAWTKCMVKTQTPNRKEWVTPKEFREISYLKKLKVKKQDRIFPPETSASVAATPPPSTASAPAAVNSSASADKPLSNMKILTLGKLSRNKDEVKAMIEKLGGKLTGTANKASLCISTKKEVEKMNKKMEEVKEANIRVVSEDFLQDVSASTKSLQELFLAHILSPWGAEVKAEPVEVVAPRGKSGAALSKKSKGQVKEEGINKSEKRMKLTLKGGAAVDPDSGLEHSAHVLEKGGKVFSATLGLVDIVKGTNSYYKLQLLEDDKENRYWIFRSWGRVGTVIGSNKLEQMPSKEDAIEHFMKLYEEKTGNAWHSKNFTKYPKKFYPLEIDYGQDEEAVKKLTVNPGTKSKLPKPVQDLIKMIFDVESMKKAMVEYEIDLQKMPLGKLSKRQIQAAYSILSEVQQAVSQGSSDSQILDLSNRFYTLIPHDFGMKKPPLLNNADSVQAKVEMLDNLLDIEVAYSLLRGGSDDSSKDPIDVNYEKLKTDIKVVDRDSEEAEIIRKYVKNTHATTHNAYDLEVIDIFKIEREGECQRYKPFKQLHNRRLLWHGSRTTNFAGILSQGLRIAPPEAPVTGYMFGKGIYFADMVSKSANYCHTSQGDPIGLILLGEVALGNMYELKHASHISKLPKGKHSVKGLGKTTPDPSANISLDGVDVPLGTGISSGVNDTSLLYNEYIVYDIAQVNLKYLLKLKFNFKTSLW

In the data set on LoVo [1], `C[C@]1(c2nc3c(C(N)=O)cccc3[nH]2)CCCN1` [VELIPARIB] gave a GI50 of 6200 nM. In addition, the EC50 (in [2] (capan-1); in the data set with MRC5 (mrc5)) was above 10000 nM each time.

Turning to `Cc1ccc(S(=O)(=O)O)cc1.Cn1ncnc1[C@H]1c2n[nH]c(=O)c3cc(F)cc(c23)N[C@@H]1c1ccc(F)cc1` [TALAZOPARIB TOSYLATE], the area under the curve (AUC) stood at 135 ng·h/mL in the data set on Canis familiaris [3], 600 ng·h/mL in data set [11] and 611 ng·h/mL in the data set on Canis familiaris [13]. For the same compound, the half-life is 26.7 h in data set [4] and 24.4 h in data set [14]. Also, the Clast is 0.313 ng/mL in the data set on Canis familiaris [5] and 0.182 ng/mL in the data set on Canis familiaris [12]. Moreover, the Vd in data set [6] turned out to be 4.67 L/kg. Further, the AUC(0-t) in [7] turned out to be 129 ng·h/mL. Moreover, the time to peak (Tmax) in data set [8] was 4 h. In addition, the results for the Cmax in [9] and in data set [15] were 18.9 ng/mL and 68 ng/mL, respectively. Besides, the clearance in data set [10] was 3.3 mL/min/kg. Besides, the Vd/F in data set [16] was 5.81 L/kg. In the data set with Canis familiaris [17], this compound had an F of 118.7%.

`O=c1[nH]nc2c3c(cccc13)N[C@H](c1ccc(CN3CCC3)cc1)[C@H]2c1ccc(F)cc1` displayed an exposure (AUC) in [18] of 914 ng·h/mL. This compound gave a clearance in data set [19] of 26 mL/min/kg. Besides, the Vd in data set [20] was 4.5 L/kg. In the data set with LoVo [1], the concentration for 50% growth inhibition (GI50) stood at 279 nM. This compound came in with a concentration for half-maximal inhibition (IC50) in data set [21] of 1.1 nM. In addition, the EC50 at PARP 1, 2 and 3 is 6.3 nM; in data set [2] (Homo sapiens, CAPAN-1) it was 389 nM. Besides, the half-life in data set [22] was 2.29 h. This compound also displayed a maximum concentration (Cmax) in [23] of 126 ng/mL. The compound also returned a bioavailability in [24] of 14%.

For the compound `O=C(c1cc(Cc2n[nH]c(=O)c3ccccc23)ccc1F)N1CCN(C(=O)C2CC2)CC1` [OLAPARIB], in the data set on LoVo [25], the 50% growth inhibitory concentration (GI50) worked out at 237 nM. This compound displayed an exposure (AUC) in data set [18] of 559 ng·h/mL. The compound also had a clearance in data set [19] of 34.3 mL/min/kg. Also, the result with MX1 [26] was inactive. In addition, the Vd in data set [20] was 0.83 L/kg. For the same compound, in data set [22], the half-life was 0.53 h. Besides, the concentration giving a half-maximal response (EC50) was determined as 259 nM in data set [2] (Homo sapiens, CAPAN-1) and 5830 nM with MRC5 (Homo sapiens, MRC5). In the data set with Mus musculus [27], the inhibition entry is “Active”. Also, the maximum concentration (Cmax) in [23] was determined as 437 ng/mL. This compound also came in with a bioavailability in data set [24] of 11%.

In the case of `CNCc1ccc(-c2[nH]c3cc(F)cc4c3c2CCNC4=O)cc1` [RUCAPARIB], the GI50 in the data set on LoVo [1] turned out to be 144 nM. In the data set on MRC5 (Homo sapiens, MRC5), this compound returned an EC50 of 8530 nM.

As for `Cn1ncnc1[C@H]1c2n[nH]c(=O)c3cc(F)cc(c23)N[C@@H]1c1ccc(F)cc1`, the outcome in the data set on MX1 [28] was inactive. The Activity entry with MX1 [29] is “Dose-dependent effect”. Moreover, the outcome with MX1 [30], with MX1 [31] and in the data set with MX1 [32] was Active. In the data set on Mus musculus [33], the inhibition result is “inactive”. For the same compound, in the data set with Mus musculus [34], the inhibition entry is “Active”.

Take `O=c1[nH]nc2c3c(cccc13)NC(c1ccc(CN3CCC3)cc1)C2c1ccccc1` (stereo not drawn): the GI50 in the data set with LoVo [1] is 89000 nM. In data set [21], this compound came in with a half-maximal inhibitory concentration (IC50) of 3.63 nM. Besides, the EC50 at PARP 1, 2 and 3 is 9.7 nM; in data set [2] (Homo sapiens, CAPAN-1) it was 434 nM. In [35], this compound returned a half-life of 0.133 h.

With `Cn1ncnc1[C@H]1c2n[nH]c(=O)c3cccc(c23)N[C@@H]1c1ccc(F)cc1`, the area under the curve (AUC) in data set [18] is 39900 ng·h/mL. In data set [19], this compound came in with a clearance of 2 mL/min/kg. In data set [20], the Vd stood at 0.39 L/kg. In the data set on LoVo [1], this compound registered a GI50 of 41 nM. Besides, inhibition in data set [21] was half-maximal at 1.46 nM (IC50). For the same compound, the concentration giving a half-maximal response (EC50) at PARP 1, 2 and 3 amounted to 5.1 nM; in data set [2] (Homo sapiens, CAPAN-1), 37 nM. For the same compound, the half-life in data set [22] is 2.44 h. The compound further came in with a Cmax in [23] of 7770 ng/mL. In data set [24], this compound yielded a bioavailability of 47%.

As to `Cn1ccnc1C1c2n[nH]c(=O)c3cccc(c23)NC1c1ccccc1` (stereo not drawn), the GI50 in the data set with LoVo [1] was 97000 nM. This compound yielded an IC50 in data set [21] of 2.35 nM. The concentration giving a half-maximal response (EC50) stood at 16.9 nM at PARP 1, 2 and 3; 360 nM in data set [2] (Homo sapiens, CAPAN-1). In [35], this compound displayed a half-life of 1.48 h.

The values are drawn from ChEMBL document CHEMBL3763037 (J Med Chem, 2016).
